Assay results published in publication PMC4400266 (ACS chemical neuroscience, 2015).

Tests used:
human OX2 receptors = target: T1, human OX2 receptors (Homo sapiens, UniProt O43614); test: Calcium mobilization Ke assay; format: cell-based
T1 sequence (O43614 1-444): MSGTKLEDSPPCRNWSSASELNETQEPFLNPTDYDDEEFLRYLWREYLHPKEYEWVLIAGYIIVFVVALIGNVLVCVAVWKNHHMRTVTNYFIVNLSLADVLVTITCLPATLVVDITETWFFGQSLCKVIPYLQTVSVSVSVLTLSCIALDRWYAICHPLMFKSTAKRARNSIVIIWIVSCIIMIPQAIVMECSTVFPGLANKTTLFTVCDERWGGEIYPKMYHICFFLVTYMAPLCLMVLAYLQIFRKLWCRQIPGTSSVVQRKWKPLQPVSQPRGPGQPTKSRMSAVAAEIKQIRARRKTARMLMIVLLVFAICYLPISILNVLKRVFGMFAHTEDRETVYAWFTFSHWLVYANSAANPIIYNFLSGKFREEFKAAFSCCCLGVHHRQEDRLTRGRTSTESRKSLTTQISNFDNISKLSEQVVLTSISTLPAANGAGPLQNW

human OX1 receptors = target: T2, human OX1 receptors (Homo sapiens, UniProt O43613); test: Calcium mobilization Ke assay; format: cell-based; settings: for OX2/OX1: ratio of Ke OX2 to Ke OX1 (table column)
T2 sequence (O43613 1-425): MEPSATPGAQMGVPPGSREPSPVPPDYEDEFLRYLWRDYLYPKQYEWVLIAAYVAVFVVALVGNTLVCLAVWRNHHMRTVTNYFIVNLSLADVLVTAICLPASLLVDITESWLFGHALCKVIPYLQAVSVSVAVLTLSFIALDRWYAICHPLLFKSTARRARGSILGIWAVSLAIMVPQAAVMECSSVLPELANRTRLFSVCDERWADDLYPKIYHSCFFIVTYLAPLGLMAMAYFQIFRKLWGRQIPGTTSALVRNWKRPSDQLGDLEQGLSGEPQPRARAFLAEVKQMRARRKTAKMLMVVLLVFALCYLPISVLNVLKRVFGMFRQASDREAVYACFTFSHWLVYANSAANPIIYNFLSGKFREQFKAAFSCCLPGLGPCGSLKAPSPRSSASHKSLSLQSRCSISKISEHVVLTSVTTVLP

OX1 = settings: cited from earlier work
[1] = administrated i.p.; cited from earlier work
Sprague-Dawley rats = test: Locomotor activity and acute cocaine-induced hyperactivity; format: in vivo, rat; settings: 10 mg/kg alone, i.p. (data not shown)

Compound | Kb (human OX2 receptors) [µM] | OX2/OX1 (human OX1 receptors) | other results
CCCOc1ccc(CC2c3cc(OC)c(OC)cc3CCN2CC(=O)NCc2ccccc2)cc1 (centres unmarked) [Compound 45, N-Benzyl-2-{6,7-dimethoxy-1-[(4-propoxyphenyl)methyl]-1,2,3,4-tetrahydroisoquinolin-2-yl}acetamide] | > 10 | >27 | –
COc1cc2c(cc1OC)C(C(C)c1ccccc1)N(CC(=O)NCc1ccccc1)CC2 (centres unmarked) [Compound 56, N-Benzyl-2-[6,7-dimethoxy-1-(1-phenylethyl)-1,2,3,4-tetrahydroisoquinolin-2-yl]acetamide] | > 10 | – | –
Cc1nc2ccc(NC(=O)Nc3ccnc4cccnc34)cc2o1 [SB-334867] | – | – | affinity for OX1 higher than for OX2 (OX1): ~ 50 fold; development of locomotor sensitization to cocaine [1]: block the development of locomotor sensitization to cocaine
COc1ccc(CC2c3cc(OC)c(OC)cc3CCN2CC(=O)NCc2ccccc2)cc1NCc1ccccc1 (centres unmarked) [Compound 33, N-Benzyl-2-(1-{[3-(benzylamino)-4-methoxyphenyl]methyl}-6,7-dimethoxy-1,2,3,4-tetrahydroisoquinolin-2-yl)acetamide] | – | – | OX1 antagonist activity in words (human OX1 receptors; at concentrations up to 10 μM): no activity
COc1cc2c(cc1OC)C(Cc1cc(OC)c(OC)c(OC)c1)N(CC(=O)NCc1ccccc1)CC2 (centres unmarked) [Compound 52, N-Benzyl-2-{6,7-dimethoxy-1-[(3,4,5-trimethoxyphenyl)methyl]-1,2,3,4-tetrahydroisoquinolin-2-yl}acetamide] | > 10 | – | –
CCCNc1cc(CC2c3cc(OC)c(OC)cc3CCN2CC(=O)NCc2ccccc2)ccc1OC (centres unmarked) [Compound 31, N-Benzyl-2-(6,7-dimethoxy-1-{[4-methoxy-3-(propylamino)phenyl]methyl}-1,2,3,4-tetrahydroisoquinolin-2-yl)acetamide] | > 10 | >11 | –
CCN(CC)c1cc(CC2c3cc(OC)c(OC)cc3CCN2CC(=O)NCc2ccccc2)ccc1OC (centres unmarked) [Compound 30, N-Benzyl-2-(1-{[3-(diethylamino)-4-methoxyphenyl]methyl}-6,7-dimethoxy-1,2,3,4-tetrahydroisoquinolin-2-yl)acetamide] | > 10 | >48 | –
COc1cc2c(cc1OC)C(Cc1ccc(N(C)C)cc1)N(CC(=O)NCc1ccccc1)CC2 (centres unmarked) [Compound 48, N-Benzyl-2-(1-{[4-(dimethylamino)phenyl]methyl}-6,7-dimethoxy-1,2,3,4-tetrahydroisoquinolin-2-yl)acetamide] | > 10 | >40 | –
COc1cc2c(cc1OC)C(Cc1ccc(OCc3ccccc3)c(OC)c1)N(CC(=O)NCc1ccccc1)CC2 (centres unmarked) [Compound 18, N-Benzyl-2-(1-{[4-(benzyloxy)-3-methoxyphenyl]methyl}-6,7-dimethoxy-1,2,3,4-tetrahydroisoquinolin-2-yl)acetamide] | – | – | decrease in OX1 potency compared to 11 (human OX1 receptors): 2 fold
COc1cc2c(cc1OC)C(Cc1cccc(N(C)C)c1)N(CC(=O)NCc1ccccc1)CC2 (centres unmarked) [Compound 44, N-Benzyl-2-(1-{[3-(dimethylamino)phenyl]methyl}-6,7-dimethoxy-1,2,3,4-tetrahydroisoquinolin-2-yl)acetamide] | 0.66 ± 0.16 | 8.8 | –
CCCC(=O)Oc1ccc(CC2c3cc(OC)c(OC)cc3CCN2CC(=O)NCc2ccccc2)cc1OC (centres unmarked) [Compound 16, 4-({2-[(Benzylcarbamoyl)methyl]-6,7-dimethoxy-1,2,3,4-tetrahydroisoquinolin-1-yl}methyl)-2-methoxyphenyl butanoate] | 2.08 ± 0.6 | 48 | –
COc1cc(CC2c3cc(OC)c(OC)cc3CCN2CC(=O)NCc2ccccc2)ccc1O (centres unmarked) [Compound 12, N-Benzyl-2-{1-[(4-hydroxy-3-methoxyphenyl)methyl]-6,7-dimethoxy-1,2,3,4-tetrahydroisoquinolin-2-yl}acetamide] | > 10 | >24 | –
COc1cc2c(cc1OC)C(Cc1ccc(OC)c(N(C)C)c1)N(CC(=O)NCc1ccccc1)CC2 (centres unmarked) [Compound 28, N-Benzyl-2-(1-{[3-(dimethylamino)-4-methoxyphenyl]methyl}-6,7-dimethoxy-1,2,3,4-tetrahydroisoquinolin-2-yl)acetamide] | 0.97 ± 0.35 | 76.7 | –
COc1cc2c(cc1OC)C(Cc1cccc(OC(C)C)c1)N(CC(=O)NCc1ccccc1)CC2 (centres unmarked) [Compound 41, N-Benzyl-2-(6,7-dimethoxy-1-{[3-(propan-2-yloxy)phenyl]methyl}-1,2,3,4-tetrahydroisoquinolin-2-yl)acetamide] | > 10 | >6.8 | decrease in OX1 potency compared to 11 (human OX1 receptors): ~ 7 fold
COc1cc2c(cc1OC)C(Cc1ccc3ncccc3c1)N(CC(=O)NCc1ccccc1)CC2 (centres unmarked) [Compound 55, N-Benzyl-2-[6,7-dimethoxy-1-(quinolin-6-ylmethyl)-1,2,3,4-tetrahydroisoquinolin-2-yl]acetamide] | > 10 | >23 | –
COc1cc2c(cc1OC)C(Cc1cccc([N+](=O)[O-])c1)N(CC(=O)NCc1ccccc1)CC2 (centres unmarked) [Compound 42, N-Benzyl-2-{6,7-dimethoxy-1-[(3-nitrophenyl)methyl]-1,2,3,4-tetrahydroisoquinolin-2-yl}acetamide] | 1.2 ± 0.16 | <0.12 | –
COc1cc2c(cc1OC)C(Cc1ccc(C)c(C)c1)N(CC(=O)NCc1ccccc1)CC2 (centres unmarked) [Compound 53, N-Benzyl-2-{1-[(3,4-dimethylphenyl)methyl]-6,7-dimethoxy-1,2,3,4-tetrahydroisoquinolin-2-yl}acetamide] | > 10 | – | –
COc1cc2c(cc1OC)C(Cc1ccc(OC(C)C)cc1)N(CC(=O)NCc1ccccc1)CC2 (centres unmarked) [Compound 46, N-Benzyl-2-(6,7-dimethoxy-1-{[4-(propan-2-yloxy)phenyl]methyl}-1,2,3,4-tetrahydroisoquinolin-2-yl)acetamide] | > 10 | >20 | –
CCCOc1ccc(CC2c3cc(OCCC)c(OC)cc3CCN2CC(=O)NCc2ccccc2)cc1OC (centres unmarked) [Compound 73, N-Benzyl-2-{6-methoxy-1-[(3-methoxy-4-propoxyphenyl)methyl]-7-propoxy-1,2,3,4-tetrahydroisoquinolin-2-yl}acetamide] | – | – | spontaneous activity (Sprague-Dawley rats): did not significantly alter the spontaneous activity; OX1 selectivity over the OX2 receptor (human OX1 receptors): > 620 fold
CCNc1cc(CC2c3cc(OC)c(OC)cc3CCN2CC(=O)NCc2ccccc2)ccc1OC (centres unmarked) [Compound 29, N-Benzyl-2-(1-{[3-(ethylamino)-4-methoxyphenyl]methyl}-6,7-dimethoxy-1,2,3,4-tetrahydroisoquinolin-2-yl)acetamide] | > 10 | >32 | –
CCCCCCOc1ccc(CC2c3cc(OC)c(OC)cc3CCN2CC(=O)NCc2ccccc2)cc1OC (centres unmarked) [Compound 14, N-Benzyl-2-(1-{[4-(hexyloxy)-3-methoxyphenyl]methyl}-6,7-dimethoxy-1,2,3,4-tetrahydroisoquinolin-2-yl)acetamide] | > 10 | >83 | –
COc1cc2c(cc1OC)C(Cc1ccc(C(C)C)cc1)N(CC(=O)NCc1ccccc1)CC2 (centres unmarked) [Compound 51, N-Benzyl-2-(6,7-dimethoxy-1-{[4-(propan-2-yl)phenyl]methyl}-1,2,3,4-tetrahydroisoquinolin-2-yl)acetamide] | > 10 | >118 | –
CCCCOc1ccc(CC2c3cc(OC)c(OC)cc3CCN2CC(=O)NCc2ccccc2)cc1OC (centres unmarked) [Compound 13, N-Benzyl-2-{1-[(4-butoxy-3-methoxyphenyl)methyl]-6,7-dimethoxy-1,2,3,4-tetrahydroisoquinolin-2-yl}acetamide] | 2 ± 0.86 | 42 | –
COc1ccc(CCC2c3cc(OC)c(OC)cc3CCN2CC(=O)NCc2ccccc2)cc1OC (centres unmarked) [Compound 60, N-Benzyl-2-{1-[2-(3,4-dimethoxyphenyl)ethyl]-6,7-dimethoxy-1,2,3,4-tetrahydroisoquinolin-2-yl}acetamide] | > 10 | – | –
COc1cc2c(cc1OC)C(Cc1ccc(OS(=O)(=O)c3ccccc3)c(OC)c1)N(CC(=O)NCc1ccccc1)CC2 (centres unmarked) [Compound 23, 4-({2-[(Benzylcarbamoyl)methyl]-6,7-dimethoxy-1,2,3,4-tetrahydroisoquinolin-1-yl}methyl)-2-methoxyphenyl benzenesulfonate] | – | – | decrease in OX1 potency compared to 11 (human OX1 receptors): ~ 9 fold
COc1cc2c(cc1OC)C(Cc1ccc(OC)c([N+](=O)[O-])c1)N(CC(=O)NCc1ccccc1)CC2 (centres unmarked) [Compound 26, N-Benzyl-2-{6,7-dimethoxy-1-[(4-methoxy-3-nitrophenyl)methyl]-1,2,3,4-tetrahydroisoquinolin-2-yl}acetamide] | – | – | decrease in OX1 potency compared to 11 (human OX1 receptors): ~ 7 fold
COc1cc2c(cc1OC)C(Cc1ccc3ccccc3c1)N(CC(=O)NCc1ccccc1)CC2 (centres unmarked) [Compound 54, N-Benzyl-2-[6,7-dimethoxy-1-(naphthalen-2-ylmethyl)-1,2,3,4-tetrahydroisoquinolin-2-yl]acetamide] | 1.62 ± 0.23 | 6.6 | –
